Results on six molecules are retold here after PMC7400457, “Profiling and Identification of Omeprazole Metabolites in Mouse Brain and Plasma by Isotope Ratio-Monitoring Liquid Chromatography-Mass Spectrometric Method” (Life, 2020).

The data set can be described thus: In vivo metabolite identification (MetID) after concomitant omeprazole/D3-omeprazole administration, mouse plasma and brain. Particulars: for D, i.p. route (brain): found / not found / A, i.p. route (plasma): found / not found: 50 mg/kg omeprazole/D3-omeprazole 1:1, i.p.; for D, i.p. route (brain): found / not found / E, i.v. route (brain): found / not found / F, p.o. route (brain): found / not found: mouse brain; for A, i.p. route (plasma): found / not found / B, i.v. route (plasma): found / not found / C, p.o. route (plasma): found / not found: mouse plasma; for E, i.v. route (brain): found / not found / B, i.v. route (plasma): found / not found: 50 mg/kg omeprazole/D3-omeprazole 1:1, i.v.; for samples (matrix/route) in which the metabolite was observed: 50 mg/kg omeprazole/D3-omeprazole 1:1, mice; for F, p.o. route (brain): found / not found / C, p.o. route (plasma): found / not found: 50 mg/kg omeprazole/D3-omeprazole 1:1, p.o. Further details: species or system Male ICR mice; key to D, i.p. route (brain): found / not found / E, i.v. route (brain): found / not found / F, p.o. route (brain): found / not found / A, i.p. route (plasma): found / not found / B, i.v. route (plasma): found / not found / C, p.o. route (plasma): found / not found: O, found; -, not found. The procedure:
The LC–QTOF-MS system was consisted of a chromatographic pump system (Shimadzu CBM–20A/LC–20AD, Shimadzu Scientific Instruments, Riverwood Dr, Columbia, SC, USA), an auto-sampler system (Eksigent CTC HTS PAL, Sciex, Redwood City, CA, USA), equipped with a mass spectrometer (TripleTOF^TM 5600, Sciex, Redwood City, CA, USA). Chromatographic separation was performed using reversed-phase C18 columns (Phenomenex® Kinetex XB–C18 column; 2.1 × 50 mm for bioanalytical sample quantification and 2.1 × 100 mm for MetID). The HPLC mobile phase was comprised of distilled/deionized water containing 0.1% formic acid (phase A) and acetonitrile containing 0.1% formic acid (phase B) with a binary gradient program. The LC–gradient was optimized as follows: 3.2 min for the quantification (0–0.5 min, 5% B; 0.5–1.2 min, 5–95% B; 1.2–1.4 min, 95% B; 1.4–1.5 min, 95–5% B; and 1.5–3.2 min, 5% B with a flow rate of 0.4 mL/min) and 23 min for MetID (0–1 min, 5% B; 1–13 min, 5–40% B; 13–13.5 min, 40–45% B; 13.5–15.5 min, 45–90% B; 15.5–17.9 min, 90% B; 17.9–18 min, 90–5% B; and 18–23 min, 5% B with a flow rate of 0.3mL/min). In particular, the LC separation conditions for MetID studies were optimized where the peaks of metabolites were separated as much as possible. This was critical in searching for any relevant metabolites originated from omeprazole with unique isotope ratio 1:1.
The single reaction monitoring at high sensitivity option (SRMHS) in the product ion scan was used for the quantification of PK as well as MetID samples. The information-dependent analysis (IDA) method including high resolution TOF full scan and seven unique information-dependent product ion scans were performed for the MetID study. The ion spray voltage (ISVF) was set at 5500 V. The source gas (nebulizer [GS1, ion source gas1] and heater [GS2, ion source gas2]) was set at 50 psi, and the source temperature was set at 500 °C with the curtain gas (CUR) flow of […].
A separate in vivo MetID study was conducted. A total of 50 mg/kg (1:1 ratio of omeprazole and D3–omeprazole) was given through each administration route (p.o., i.v. and i.p.). After administration, blood and brain tissue sampling was conducted in the same manner as the previous PK studies. The collected samples were stored at −80 °C until analysis.
The plasma samples obtained from the study dosed with 50 mg/kg were collected according to the Hamilton pooling method. The pooled plasma sample (a total of 274 μL) was transferred to a clean tube, and 1 mL of ACN was added. The pretreated samples were centrifuged at 10,000 rpm for 5 min, and 1100 μL of the supernatant was evaporated to dryness under vacuum in a centrifugal evaporator (CVE–3110, Eyela, Tokyo, Japan) connected to cold trap (UT–1000, Eyela, Tokyo, Japan). The dried residue was re-constituted, shaken and centrifuged. After centrifugation, the supernatant was transferred to an LC–vial for analysis.
The metabolites of omeprazole were investigated using an LC–QTOF–MS assay. […] In this case, any metabolites having a mass difference of 3 daltons between omeprazole and its stable isotope D3–omeprazole were thoroughly searched as possible drug-related metabolites.

With `COc1ccc2[nH]c([S+]([O-])Cc3ncc(C)cc3C)nc2c1` (stereo not drawn) [Metabolite M11], the “D, i.p. route (brain): found / not found” value is reported as “O”; the “A, i.p. route (plasma): found / not found” value is reported as “O”; the “E, i.v. route (brain): found / not found” value is given as “O”; the “B, i.v. route (plasma): found / not found” value is on record as “O”. For the same molecule, the “samples (matrix/route) in which the metabolite was observed” value (“samples (matrix/route)” below) was “all plasma samples (all dosing routes) and all brain samples (all dosing routes)”; the “F, p.o. route (brain): found / not found” value is reported as “O”; the “C, p.o. route (plasma): found / not found” value is recorded as “O”.
On to `COc1c(C)cnc(C[S+]([O-])c2nc3cc(O[C@@H]4O[C@H](C(=O)O)[C@@H](O)[C@H](O)[C@H]4O)ccc3[nH]2)c1C` (stereo partly drawn) [Metabolite M2], for which the “D, i.p. route (brain): found / not found” value was “O”; the “A, i.p. route (plasma): found / not found” value was “O”; the “E, i.v. route (brain): found / not found” value was “O”; the “B, i.v. route (plasma): found / not found” value is reported as “O”. Further, the “samples (matrix/route)” value was “all samples except the brain–PO route sample”; the “F, p.o. route (brain): found / not found” value is recorded as “-”; the “C, p.o. route (plasma): found / not found” value is “O”.
As for `COc1ccc2[nH]c(SCc3ncc(C)c(OC)c3C)nc2c1` [Metabolite M15, omeprazole sulfide], the “D, i.p. route (brain): found / not found” value was “O”; the “A, i.p. route (plasma): found / not found” value is recorded as “O”; the “E, i.v. route (brain): found / not found” value is recorded as “O”; the “B, i.v. route (plasma): found / not found” value is on record as “O”. Further, the “F, p.o. route (brain): found / not found” value is “O” and the “C, p.o. route (plasma): found / not found” value is on record as “O”. Besides, the “samples (matrix/route)” value (50 mg/kg) was “all plasma samples (all dosing routes) and all brain samples (all dosing routes)”.
Regarding `COc1c(C)cnc(CSc2nc3cc(O)ccc3[nH]2)c1C` [Metabolite M17], the “D, i.p. route (brain): found / not found” value is “O”; the “A, i.p. route (plasma): found / not found” value is recorded as “-”; the “E, i.v. route (brain): found / not found” value is “O”; the “B, i.v. route (plasma): found / not found” value is given as “-”. Further, the “samples (matrix/route)” value was “only from the brain–IP route and brain–IV route”; the “F, p.o. route (brain): found / not found” value was “-”; the “C, p.o. route (plasma): found / not found” value is “-”.
For `COc1ccc2nc(S(=O)(=O)Cc3ncc(C)c(OC)c3C)[nH]c2c1` [Metabolite M14, omeprazole sulfone], the “D, i.p. route (brain): found / not found” value is on record as “O”; the “A, i.p. route (plasma): found / not found” value is “O”; the “E, i.v. route (brain): found / not found” value is reported as “O”; the “B, i.v. route (plasma): found / not found” value was “O”. The “samples (matrix/route)” value is “all plasma samples (all dosing routes) and all brain samples (all dosing routes)”; the “F, p.o. route (brain): found / not found” value is listed as “O”; the “C, p.o. route (plasma): found / not found” value is given as “O”.
`COc1ccc2[nH]c(SCC(NC(C)=O)C(=O)O)nc2c1` (stereo not drawn) [Metabolite M1]: the “D, i.p. route (brain): found / not found” value was “-”; the “A, i.p. route (plasma): found / not found” value is listed as “O”; the “E, i.v. route (brain): found / not found” value is on record as “-”; the “B, i.v. route (plasma): found / not found” value is reported as “O”. Moreover, the “samples (matrix/route)” value is “plasma–IV route and plasma-IP route samples”; the “F, p.o. route (brain): found / not found” value was “-”; the “C, p.o. route (plasma): found / not found” value was “-”.
